Experiments:
[1] = system: scopolamine induced memory deficit in mice; test: Dark Avoidance Assay (reversal of scopolamine induced memory deficit); assay type: in vivo; conditions: retest 24 hours later
Procedure: This utility can also be ascertained by determining the ability of these compounds to restore cholinergically deficient memory in the Dark Avoidance Assay. In this assay mice are tested for their ability to remember an unpleasant stimulus for a period of 24 hours. A mouse is placed in a chamber that contains a dark compartment; a strong incadescent light drives it to the dark compartment, where an electric shock is administered through metal plates on the floor. The animal is removed from the testing apparatus and tested again, 24 hours later, for the ability to remember the electric shock.
If scopolamine, an anticholinergic that is known to cause memory impairment, is administered before an animal's initial exposure to the test chamber, the animal re-enters the dark compartment shortly after being placed in the test chamber 24 hours later. This effect of scopolamine is blocked by an active test compound, resulting in a greater interval before re-entry into the dark compartment.
The results for an active compound are expressed as the percent of a group of animals in which the effect of scopolamine is blocked, as manifested by an increased interval between being placed in the test chamber and re-entering the dark compartment.

acetylcholinesterase = acetylcholinesterase (Homo sapiens, UniProt P22303); test: Cholinesterase inhibition assay (photometric method of Ellman et al.); assay type: biochemical
acetylcholinesterase, sequence (P22303 32-614): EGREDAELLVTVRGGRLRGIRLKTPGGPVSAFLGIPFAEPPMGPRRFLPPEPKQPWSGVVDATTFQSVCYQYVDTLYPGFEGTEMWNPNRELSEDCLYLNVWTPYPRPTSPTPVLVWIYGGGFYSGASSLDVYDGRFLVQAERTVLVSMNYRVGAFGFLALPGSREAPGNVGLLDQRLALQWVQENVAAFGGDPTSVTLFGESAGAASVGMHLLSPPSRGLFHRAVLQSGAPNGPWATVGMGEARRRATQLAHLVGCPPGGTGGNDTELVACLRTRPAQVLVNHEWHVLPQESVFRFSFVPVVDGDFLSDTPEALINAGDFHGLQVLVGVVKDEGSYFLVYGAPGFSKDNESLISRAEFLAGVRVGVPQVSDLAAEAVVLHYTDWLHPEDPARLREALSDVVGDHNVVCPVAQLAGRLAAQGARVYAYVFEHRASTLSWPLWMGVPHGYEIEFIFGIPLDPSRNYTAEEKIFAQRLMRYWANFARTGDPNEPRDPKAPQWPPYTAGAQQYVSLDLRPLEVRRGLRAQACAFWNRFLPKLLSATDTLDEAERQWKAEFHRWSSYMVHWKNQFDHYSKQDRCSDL

Row | Structure (SMILES) | % of animals with scopolamine induced memory deficit reversal ([1]; dose 0.31 mg/kg body weight, reference) | % of animals with scopolamine induced memory deficit reversal ([1]; dose 5.0 mg/kg body weight) | IC50 (acetylcholinesterase)
1 | CNC(=O)Oc1ccc2c(c1)[C@]1(C)CCN(C)[C@@H]1N2C [Physostigmine, reference compound] | 20% | – | –
2 | c1ccc(C2Nc3c4c(nc5ccccc35)CCCC4O2)cc1 (stereo not shown) [2-Phenyl-1,2,3a,4,5,6-hexahydro[1,3]oxazino[6,5,4-kl]acridine] | – | 27% | 36 µM
3 | Fc1ccc(C2Nc3c4c(nc5ccccc35)CCCC4O2)cc1 (stereo not shown) [2-(4-Fluorophenyl)-1,2,3a,4,5,6-hexahydro[1,3]oxazino[6,5,4-kl]acridine] | – | – | 21 µM

— US4927820A, “Fused heterocyclic derivatives of 1,2,3,4-tetrahydroacridine” (priority 1988, dated 1990)
